Test results reported in the supplement of paper PMC10307832.

Key:
Experiment in all cases: relative viability (nuclei count vs DMSO), 5 days (fraction); higher = more cells survive
Dabrafenib + Alpelisib = compound: CC(C)(C)c1nc(-c2cccc(NS(=O)(=O)c3c(F)cccc3F)c2F)c(-c2ccnc(N)n2)s1 [Dabrafenib] + Cc1nc(NC(=O)N2CCC[C@H]2C(N)=O)sc1-c1ccnc(C(C)(C)C(F)(F)F)c1 [Alpelisib] (partner 2 µM)
How it was run: (§1)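 After 5 days of treatment, lung cancer cells in 1536-well plates were fixed and stained in a single step (final 0.05% Triton X-100, 1% formaldehyde, 1 ug/ml Hoechst) and their nuclei counted on 4× images. Treatment had been applied by pin tool the day after seeding as one drug alone or as a fixed anchor-drug dose with five library-drug doses (not always all listed) in √10 steps. Relative viability is the nuclei count of treated wells divided by that of vehicle wells, and values are medians of duplicate plates.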

Dabrafenib + Palbociclib = compound: CC(C)(C)c1nc(-c2cccc(NS(=O)(=O)c3c(F)cccc3F)c2F)c(-c2ccnc(N)n2)s1 [Dabrafenib] + CC(=O)c1c(C)c2cnc(Nc3ccc(N4CCNCC4)cn3)nc2n(C2CCCC2)c1=O [Palbociclib] (partner 0.5 µM)
How it was run: as §1

VX-702 + Pemetrexed = compound: NC(=O)c1ccc(N(C(N)=O)c2c(F)cccc2F)nc1-c1ccc(F)cc1F [VX-702] + Nc1nc2[nH]cc(CCc3ccc(C(=O)N[C@@H](CCC(=O)O)C(=O)O)cc3)c2c(=O)[nH]1 [Pemetrexed] (partner 0.2 µM)
How it was run: as §1

VX-702 + Pictilisib = compound: NC(=O)c1ccc(N(C(N)=O)c2c(F)cccc2F)nc1-c1ccc(F)cc1F [VX-702] + CS(=O)(=O)N1CCN(Cc2cc3nc(-c4cccc5[nH]ncc45)nc(N4CCOCC4)c3s2)CC1 [Pictilisib] (partner 1 µM)
How it was run: as §1

| Cell Line | relative viability (Dabrafenib + Alpelisib; first compound 0.003 µM) | relative viability (Dabrafenib + Alpelisib; first compound 0.009487 µM) | relative viability (Dabrafenib + Alpelisib; first compound 0.03 µM) | relative viability (Dabrafenib + Alpelisib; first compound 0.09487 µM) | relative viability (Dabrafenib + Alpelisib; first compound 0.3 µM) | relative viability (Dabrafenib + Palbociclib; first compound 0.003 µM) | relative viability (Dabrafenib + Palbociclib; first compound 0.009487 µM) | relative viability (Dabrafenib + Palbociclib; first compound 0.03 µM) | relative viability (Dabrafenib + Palbociclib; first compound 0.09487 µM) | relative viability (Dabrafenib + Palbociclib; first compound 0.3 µM) | relative viability (VX-702 + Pemetrexed; first compound 0.02 µM) | relative viability (VX-702 + Pemetrexed; first compound 0.2 µM) | relative viability (VX-702 + Pemetrexed; first compound 0.6325 µM) | relative viability (VX-702 + Pemetrexed; first compound 2 µM) | relative viability (VX-702 + Pictilisib; first compound 0.02 µM) | relative viability (VX-702 + Pictilisib; first compound 0.2 µM) | relative viability (VX-702 + Pictilisib; first compound 0.6325 µM) | relative viability (VX-702 + Pictilisib; first compound 2 µM) |
| --- | --- | --- | --- | --- | --- | --- | --- | --- | --- | --- | --- | --- | --- | --- | --- | --- | --- | --- |
| HCC-44 | 0.751 | 0.792 | 0.789 | 0.732 | 0.807 | 1.01 | 0.956 | 0.943 | 0.842 | 0.983 | 0.615 | 0.652 | 0.653 | 0.678 | 0.726 | 0.552 | 0.479 | 0.522 |
| HCC-78 | – | 0.445 | 0.346 | 0.305 | 0.332 | 0.366 | 0.481 | 0.414 | 0.426 | 0.498 | 0.874 | 0.883 | 0.901 | 0.889 | 0.224 | 0.17 | 0.176 | 0.237 |
| HCC-366 | – | 0.435 | 0.145 | 0.374 | 0.59 | 0.434 | 0.403 | 0.336 | 0.354 | 0.344 | 0.171 | 0.149 | 0.203 | 0.165 | 0.132 | 0.148 | 0.154 | 0.113 |
| HCC-827 | 0.895 | 0.967 | 0.778 | 0.793 | 0.963 | 0.465 | 0.3 | 0.374 | – | 0.525 | 0.244 | 0.252 | 0.287 | 0.18 | 0.856 | 0.701 | 0.99 | 0.355 |
| HOP-62 | – | 1 | 0.734 | 0.902 | 0.771 | 0.466 | 0.423 | 0.433 | 0.471 | 0.498 | 0.365 | 0.311 | 0.284 | 0.309 | 0.852 | 0.652 | 0.597 | 0.683 |
| IA-LM | 0.613 | 0.607 | 0.72 | 0.242 | 0.0678 | – | – | – | – | – | – | – | – | – | 0.298 | 0.324 | 0.265 | 0.352 |
| LC-2-ad | 0.907 | 0.824 | 0.891 | 0.835 | 0.882 | 0.52 | 0.511 | 0.495 | 0.476 | 0.478 | 0.275 | 0.271 | 0.269 | 0.274 | 0.472 | 0.45 | 0.446 | 0.433 |
| LCLC-97TM1 | – | 0.228 | 0.303 | – | 0.258 | – | 0.206 | 0.266 | 0.184 | 0.198 | 0.167 | 0.171 | 0.141 | 0.193 | 0.148 | 0.21 | 0.121 | 0.192 |
| LCLC-103H | 0.726 | 1.16 | 0.912 | 0.853 | 0.972 | 0.467 | 0.495 | 0.432 | 0.455 | 0.514 | 0.503 | 0.445 | 0.469 | 0.469 | 0.638 | 0.621 | 0.666 | 0.613 |
| LK-2 | 1.05 | 1.14 | – | 1.35 | 1.13 | 0.687 | 0.377 | – | 0.555 | 0.84 | 0.277 | 0.272 | 0.236 | 0.247 | 0.457 | – | 0.385 | 0.594 |
| LOU-NH91 | – | 0.803 | 0.652 | 0.7 | 0.743 | – | 0.558 | 0.589 | 0.533 | 0.543 | 0.383 | 0.366 | 0.385 | 0.412 | 0.545 | 0.489 | 0.491 | 0.53 |
| NCI-H522 | – | – | – | – | – | – | 1.02 | 0.932 | 0.952 | 1.08 | 1.08 | 0.891 | 0.971 | 0.999 | – | – | – | – |
| NCI-H596 | 0.408 | 0.578 | 0.427 | 0.534 | 0.566 | – | – | – | – | – | 0.535 | 0.455 | 0.567 | 0.534 | 0.398 | 0.246 | 0.392 | 0.389 |
| NCI-H727 | – | 0.757 | 0.519 | 0.647 | 0.638 | 0.598 | 0.64 | – | 0.719 | 0.675 | – | – | – | – | 0.343 | 0.302 | 0.382 | 0.356 |
| NCI-H1299 | 1.14 | 0.982 | 1.03 | 0.87 | 0.757 | – | – | – | – | – | – | – | – | – | 0.802 | 0.65 | 0.554 | 0.547 |
| NCI-H1563 | 0.944 | 0.971 | 0.853 | 0.777 | 1.06 | – | – | – | – | – | 0.751 | 0.785 | 0.601 | 0.639 | 0.685 | 0.626 | 0.594 | 0.625 |
| NCI-H1648 | – | – | – | – | – | 0.317 | 0.215 | – | 0.251 | 0.329 | 0.737 | 0.617 | 0.75 | 0.818 | – | – | – | – |
| NCI-H1650 | – | – | – | – | – | 0.332 | 0.382 | 0.235 | 0.301 | 0.358 | 0.325 | 0.34 | 0.384 | 0.403 | 0.641 | 0.326 | 0.596 | 0.586 |
| NCI-H1703 | 0.356 | 0.309 | 0.291 | 0.379 | 0.362 | – | – | – | – | – | – | – | – | – | 0.229 | 0.277 | 0.218 | 0.263 |
| NCI-H2342 | – | – | – | – | – | 0.511 | 0.566 | 0.474 | 0.608 | 0.523 | 0.771 | 0.857 | 0.796 | 0.796 | – | – | – | – |
